Results taken from PubChem BioAssay AID2060486 (Molecular Pharmacology Branch, DTP, NCI, 2025).

Test system: IGROV1 complex spheroids (HUVEC, MSC), viability % test/control
Assay: Anticancer human tumor IGROV1 cell line growth inhibition [GQUAD];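 note: spheroids exposed to compounds for 7 days before readout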
Conditions: for IC50: curve of first compound; for viability, T/C: stronger effect = lower value
Source text: DNA G-quadruplex Stabilizer Agents in Combinations in Complex Spheroids
A high-throughput screen of multi-cell type tumor spheroids was designed to identify active combinations of DNA G-quadruplex stabilizer agents and targeted small molecules. Complex spheroids include a stromal component modeled by human endothelial cells (HUVEC) and fibroblasts modeled by human mesenchymal stem cells (MSCs). The concentration ranges selected for each drug and investigational agent were based upon clinically achievable concentrations if the clinical Cmax of the agent was known.
Compounds. The drugs and investigational agents: pidnarulex (CX-5461; NSC782164), APTO-253 (NSC789042), BRACO-19 (NSC847499), peposertib (NSC802822), ceralasertib (NSC780249), elimusertib (NSC800525), camonsertib (NSC841442), AZD-1390 (NSC803789), olaparib (NSC753686), talazoparib (NSC767125), ART-558 (NSC835418), sotorasib (NSC818433), MRTX-1133 (NSC836407), SN-38 (NSC673596), topotecan (NSC609699), etoposide (NSC141540), doxorubicin (NSC123127), gemcitabine (NSC613327), 5-fluorouracil (NSC19893), paclitaxel (NSC125973), vemurafenib (NSC761431), panobinostat (NSC761190), R-306465 (JNJ-16241199; NSC773264), adavosertib (NSC754352), TP-3654 (NSC805149), carboplatin (NSC241240), KSQ-4279 (NSC840948), and staurosporine (NSC755774) were obtained from the National Cancer Institute (NCI) Developmental Therapeutics Program Chemical Repository (34). The FDA-approved anticancer drug set is available from the NCI Developmental Therapeutics Program. […] The stock solutions were prepared in dimethyl sulfoxide (DMSO, Sigma-Aldrich, St. Louis, MO, cat. D2650) at 800-fold the tested concentration and stored at -70 degrees C prior to their use. All drugs and investigational agents were tested over a range starting from a high concentration at or near the clinical Cmax and decreasing in half-log increments. If the clinical Cmax for an agent had not been determined, the highest concentration tested was 10 microM.
2.3 Cell Culture. All cells were maintained in an incubator at 37 degrees C and 5% CO2 with 95% humidity. The PDC lines were cultured according to standard operating procedures established by the NCI PDMR. All PDCs were thawed and cultured in Matrigel-coated flasks prepared with a working solution of 1X Ham's F-12 nutrient mix, without supplementation (Invitrogen, cat. 11765054), 100 U/mL penicillin-streptomycin (Invitrogen, cat. 15140122), and 2.5% Matrigel (Corning Inc., cat. 354248) for the first three passages. The 857933-349-R-J2-PDC line was cultured in 6C/Colon 1B media, which includes advanced DMEM/F-12 (Thermo Fisher Scientific, cat. 12634028), 10 mM HEPES (Thermo Fisher Scientific, cat. 15630080), 1X GlutaMAX supplement (Thermo Fisher Scientific, cat. 35050061), 0.1 mg/mL primocin (InvivoGen, cat. ant-pm-2), 10% defined fetal bovine serum, heat inactivated (HyClone Laboratories Inc., cat. SH30070.03HI), 50% L-WRN conditioned media (ATCC, cat. CRL-3276), 1.25 mM N-Acetyl-L-cysteine (Sigma-Aldrich, cat. A9165), 10 mM nicotinamide (Sigma-Aldrich, cat. N0636), 1X B-27 supplement (Thermo Fisher Scientific, cat. 17504044), 1X N-2 supplement (Thermo Fisher Scientific, cat. 17502048), 10 microM Y-27632 dihydrochloride (Tocris Bioscience, cat. 1254), and 50 ng/mL human EGF recombinant protein (Thermo Fisher Scientific, cat. PHG0311). The 485176-168-R4-J1-PDC line was cultured in Panc media, which includes all 6C/Colon 1B media components plus 100 ng/mL human FGF-10 (Thermo Fisher Scientific, cat. 100-26), 500 nM SB-431542 (Selleckchem, cat. S1067), and gastrin (Tocris, cat. 3006).
[…]

[1] = second compound 0.0316 µM, first compound 0.0316 µM
[2] = second compound 0.0316 µM, first compound 0.316 µM
[3] = second compound 0.1 µM, first compound 0.0316 µM
[4] = second compound 0.1 µM, first compound 0.316 µM
[5] = second compound 0.316 µM, first compound 0.0316 µM
[6] = second compound 0.316 µM, first compound 0.316 µM
[7] = second compound 1 µM, first compound 0.0316 µM
[8] = second compound 1 µM, first compound 0.316 µM
[9] = second compound 3.16 µM, first compound 0.0316 µM
[10] = second compound 3.16 µM, first compound 0.316 µM
[11] = second compound 10 µM, first compound 0.0316 µM
[12] = second compound 10 µM, first compound 0.316 µM

## COc1cc(C2c3cc4c(cc3C(OC3OC5COC(C)OC5C(O)C3O)C3COC(=O)C23)OCO4)cc(OC)c1O (centres undefined) + CN(C)c1ccc(Nc2c3ccc(NC(=O)CCN4CCCC4)cc3nc3cc(NC(=O)CCN4CCCC4)ccc23)cc1
Second compound 0.0316 µM
  IC50: 138 nM
Second compound 0.1 µM
  IC50: 109 nM
Second compound 0.316 µM
  IC50: 93.5 nM
Second compound 1 µM
  IC50: 84.1 nM
Second compound 3.16 µM
  IC50: 98.5 nM
Second compound 10 µM
  IC50: < 31.6 nM
[1]
  viability, T/C: 88.3%
Second compound 0.0316 µM, first compound 0.1 µM
  viability, T/C: 59.8%
[2]
  viability, T/C: 25.1%
Second compound 0.0316 µM, first compound 1 µM
  viability, T/C: 13.8%
Second compound 0.0316 µM, first compound 3.16 µM
  viability, T/C: 9.71%
Second compound 0.0316 µM, first compound 10 µM
  viability, T/C: 6.8%
[3]
  viability, T/C: 90.7%
Second compound 0.1 µM, first compound 0.1 µM
  viability, T/C: 51.9%
[4]
  viability, T/C: 24.9%
Second compound 0.1 µM, first compound 1 µM
  viability, T/C: 11.9%
Second compound 0.1 µM, first compound 3.16 µM
  viability, T/C: 9.44%
Second compound 0.1 µM, first compound 10 µM
  viability, T/C: 6.65%
[5]
  viability, T/C: 88%
Second compound 0.316 µM, first compound 0.1 µM
  viability, T/C: 47.6%
[6]
  viability, T/C: 23.2%
Second compound 0.316 µM, first compound 1 µM
  viability, T/C: 11.3%
Second compound 0.316 µM, first compound 3.16 µM
  viability, T/C: 9.49%
Second compound 0.316 µM, first compound 10 µM
  viability, T/C: 5.93%
[7]
  viability, T/C: 83.4%
Second compound 1 µM, first compound 0.1 µM
  viability, T/C: 44.5%
[8]
  viability, T/C: 18.1%
Second compound 1 µM, first compound 1 µM
  viability, T/C: 12.9%
Second compound 1 µM, first compound 3.16 µM
  viability, T/C: 9.59%
Second compound 1 µM, first compound 10 µM
  viability, T/C: 5.75%
[9]
  viability, T/C: 85.2%
Second compound 3.16 µM, first compound 0.1 µM
  viability, T/C: 49.4%
[10]
  viability, T/C: 24.6%
Second compound 3.16 µM, first compound 1 µM
  viability, T/C: 11%
Second compound 3.16 µM, first compound 3.16 µM
  viability, T/C: 9.22%
Second compound 3.16 µM, first compound 10 µM
  viability, T/C: 5.74%
[11]
  viability, T/C: 50.3%
Second compound 10 µM, first compound 0.1 µM
  viability, T/C: 22.1%
[12]
  viability, T/C: 13.1%
Second compound 10 µM, first compound 1 µM
  viability, T/C: 7.21%
Second compound 10 µM, first compound 3.16 µM
  viability, T/C: 6.58%
Second compound 10 µM, first compound 10 µM
  viability, T/C: 4.87%

## Cn1ncnc1[C@H]1c2n[nH]c(=O)c3cc(F)cc(c23)N[C@@H]1c1ccc(F)cc1 + CN(C)c1ccc(Nc2c3ccc(NC(=O)CCN4CCCC4)cc3nc3cc(NC(=O)CCN4CCCC4)ccc23)cc1
Second compound 0.0316 µM
  IC50: 89.6 nM
Second compound 0.1 µM
  IC50: 42.8 nM
Second compound 0.316 µM
  IC50: 127 nM
Second compound 1 µM
  IC50: 93.4 nM
Second compound 3.16 µM
  IC50: 56.5 nM
Second compound 10 µM
  IC50: < 0.999 nM
Second compound 0.0316 µM, first compound 0.000999 µM
  viability, T/C: 99.9%
Second compound 0.0316 µM, first compound 0.00316 µM
  viability, T/C: 88.4%
Second compound 0.0316 µM, first compound 0.00999 µM
  viability, T/C: 95.1%
[1]
  viability, T/C: 57%
Second compound 0.0316 µM, first compound 0.0999 µM
  viability, T/C: 58.4%
[2]
  viability, T/C: 40.1%
Second compound 0.1 µM, first compound 0.000999 µM
  viability, T/C: 101%
Second compound 0.1 µM, first compound 0.00316 µM
  viability, T/C: 82.3%
Second compound 0.1 µM, first compound 0.00999 µM
  viability, T/C: 68.2%
[3]
  viability, T/C: 46.2%
Second compound 0.1 µM, first compound 0.0999 µM
  viability, T/C: 49.7%
[4]
  viability, T/C: 35.9%
Second compound 0.316 µM, first compound 0.000999 µM
  viability, T/C: 95.7%
Second compound 0.316 µM, first compound 0.00316 µM
  viability, T/C: 77.7%
Second compound 0.316 µM, first compound 0.00999 µM
  viability, T/C: 81.3%
[5]
  viability, T/C: 52.2%
Second compound 0.316 µM, first compound 0.0999 µM
  viability, T/C: 61.5%
[6]
  viability, T/C: 38.4%
Second compound 1 µM, first compound 0.000999 µM
  viability, T/C: 90.6%
Second compound 1 µM, first compound 0.00316 µM
  viability, T/C: 79%
Second compound 1 µM, first compound 0.00999 µM
  viability, T/C: 64.9%
[7]
  viability, T/C: 65.4%
Second compound 1 µM, first compound 0.0999 µM
  viability, T/C: 57%
[8]
  viability, T/C: 28.8%
Second compound 3.16 µM, first compound 0.000999 µM
  viability, T/C: 86.2%
Second compound 3.16 µM, first compound 0.00316 µM
  viability, T/C: 79.4%
Second compound 3.16 µM, first compound 0.00999 µM
  viability, T/C: 70.6%
[9]
  viability, T/C: 58.1%
Second compound 3.16 µM, first compound 0.0999 µM
  viability, T/C: 42.1%
[10]
  viability, T/C: 29.6%
Second compound 10 µM, first compound 0.000999 µM
  viability, T/C: 47.8%
Second compound 10 µM, first compound 0.00316 µM
  viability, T/C: 40.2%
Second compound 10 µM, first compound 0.00999 µM
  viability, T/C: 35.8%
[11]
  viability, T/C: 35.1%
Second compound 10 µM, first compound 0.0999 µM
  viability, T/C: 26.9%
[12]
  viability, T/C: 19.2%
